SMILES strings stand for the structures. ≈ marks a conversion by molar mass, not a printed value. Calls of active or inactive are those of the source. No cut-off for these calls is given here.

A short description of data set [1]: Cytotoxicity against LPS-stimulated mouse RAW264.7 cells assessed as cell viability at 120 uM after 24 hrs by MTT assay (reference value: 100%). The format is cell-based. The settings on record: LPS-stimulated RAW264.7 cells, read-out: Activity. (Formazan colour is commonly taken as a measure of viable cells.)
The test system of data set [2] is RAW264.7. The data set is described as follows: Antiinflammatory activity in LPS-stimulated mouse RAW264.7 cells assessed as reduction in nitric oxide production at 80 uM after 24 hrs by Griess method based ELISA (reference value: 52.4 +/- 0.9 uM). Format: functional. In general terms: The Griess reaction detects nitrite, a stable product of nitric oxide.
Data set [3] is described as follows: Cytotoxicity against LPS-stimulated mouse RAW264.7 cells assessed as cell viability at 80 uM after 24 hrs by MTT assay (reference value: 100%). The format is cell-based. The settings on record: LPS-stimulated RAW264.7 cells, read-out: Activity.
For data set [4], the system named is RAW264.7. The data set is described as follows: Antiinflammatory activity in LPS-stimulated mouse RAW264.7 cells assessed as reduction in nitric oxide production at 120 uM after 24 hrs by Griess method based ELISA (reference value: 52.4 +/- 0.9 uM). Format: functional.
The nature of data set [5]: Cytotoxicity against LPS-stimulated mouse RAW264.7 cells assessed as cell viability at 40 uM after 24 hrs by MTT assay (reference value: 100%). The format is cell-based. The settings on record: LPS-stimulated RAW264.7 cells, read-out: Activity.
Data set [6] deals with RAW264.7. Briefly: Antiinflammatory activity in LPS-stimulated mouse RAW264.7 cells assessed as reduction in nitric oxide production at 40 uM after 24 hrs by Griess method based ELISA (reference value: 52.4 +/- 0.9 uM). Format: functional.
The subject of data set [7] is RAW264.7. Briefly: Antiinflammatory activity in LPS-stimulated mouse RAW264.7 cells assessed as reduction in nitric oxide production after 24 hrs by Griess method based ELISA. The settings on record: RAW264.7, 24 h. The format is functional, cell-based.
In data set [8] the test system is RAW264.7. Briefly: Antiinflammatory activity in LPS-stimulated mouse RAW264.7 cells assessed as reduction in IL-1beta expression at 30 uM co-incubated with LPS for 24 hrs by RT-PCR method relative to untreated control. The format is functional.
In data set [9] the test system is RAW264.7. Briefly: Antiinflammatory activity in LPS-stimulated mouse RAW264.7 cells assessed as reduction in TNFalpha expression at 10 uM co-incubated with LPS for 24 hrs by RT-PCR method relative to untreated control. Format: functional.
Data set [10] relates to RAW264.7. Briefly: Antiinflammatory activity in LPS-stimulated mouse RAW264.7 cells assessed as reduction in TNFalpha expression at 20 uM co-incubated with LPS for 24 hrs by RT-PCR method relative to untreated control. The format is functional.
For data set [11], the system named is RAW264.7. Briefly: Antiinflammatory activity in LPS-stimulated mouse RAW264.7 cells assessed as reduction in TNFalpha level at 10 to 40 uM co-incubated with LPS for 24 hrs by ELISA method. Format: functional, cell-based.
The test system of data set [12] is RAW264.7. Briefly: Antiinflammatory activity in LPS-stimulated mouse RAW264.7 cells assessed as reduction in IL6 expression at 30 uM co-incubated with LPS for 24 hrs by RT-PCR method relative to untreated control. The format is functional.
Data set [13] concerns RAW264.7. The data set is described as follows: Antiinflammatory activity in LPS-stimulated mouse RAW264.7 cells assessed as reduction in iNOS expression co-incubated with LPS for 24 hrs by RT-PCR method relative to untreated control. Format: functional, cell-based.
Data set [14] concerns RAW264.7. Briefly: Antiinflammatory activity in LPS-stimulated mouse RAW264.7 cells assessed as reduction in COX2 expression at 10 uM co-incubated with LPS for 24 hrs by RT-PCR method relative to untreated control. Format: functional.
Data set [15] can be described thus: Cytotoxicity against LPS-stimulated mouse RAW264.7 cells assessed as cell viability at 20 uM after 24 hrs by MTT assay (reference value: 100%). Format: cell-based. The settings on record: LPS-stimulated RAW264.7 cells, read-out: Activity.
The test system of data set [16] is RAW264.7. The data set is described as follows: Antiinflammatory activity in LPS-stimulated mouse RAW264.7 cells assessed as reduction in TNFalpha expression at 30 uM co-incubated with LPS for 24 hrs by RT-PCR method relative to untreated control. The format is functional.
The nature of data set [17]: Cytotoxicity against LPS-stimulated mouse RAW264.7 cells assessed as cell viability at 10 uM after 24 hrs by MTT assay (reference value: 100%). Format: cell-based. As to conditions: LPS-stimulated RAW264.7 cells, read-out: Activity.
In data set [18] the test system is RAW264.7. Briefly: Antiinflammatory activity in LPS-stimulated mouse RAW264.7 cells assessed as reduction in IL6 expression at 10 uM co-incubated with LPS for 24 hrs by RT-PCR method relative to untreated control. Format: functional.
Data set [19] relates to RAW264.7. Briefly: Antiinflammatory activity in LPS-stimulated mouse RAW264.7 cells assessed as reduction in COX2 expression at 30 uM co-incubated with LPS for 24 hrs by RT-PCR method relative to untreated control. The format is functional.
In data set [20] the test system is RAW264.7. Briefly: Antiinflammatory activity in LPS-stimulated mouse RAW264.7 cells assessed as reduction in iNOS expression at 20 uM co-incubated with LPS for 24 hrs by RT-PCR method relative to untreated control. Format: functional.
The test system of data set [21] is RAW264.7. The data set is described as follows: Antiinflammatory activity in LPS-stimulated mouse RAW264.7 cells assessed as reduction in COX2 expression at 20 uM co-incubated with LPS for 24 hrs by RT-PCR method relative to untreated control. Format: functional.
The test system of data set [22] is RAW264.7. Briefly: Antiinflammatory activity in LPS-stimulated mouse RAW264.7 cells assessed as reduction in IL6 expression at 20 uM co-incubated with LPS for 24 hrs by RT-PCR method relative to untreated control. Format: functional.
For data set [23], the system named is RAW264.7. Briefly: Antiinflammatory activity in LPS-stimulated mouse RAW264.7 cells assessed as reduction in nitric oxide production at 10 uM after 24 hrs by Griess method based ELISA (reference value: 52.4 +/- 0.9 uM). Format: functional.
Data set [24] relates to RAW264.7. Briefly: Antiinflammatory activity in LPS-stimulated mouse RAW264.7 cells assessed as reduction in nitric oxide production at 20 uM after 24 hrs by Griess method based ELISA (reference value: 52.4 +/- 0.9 uM). Format: functional.
Data set [25] deals with RAW264.7. Briefly: Induction of iNOS mRNA expression in LPS-non-stimulated mouse RAW264.7 cells by RT-PCR method. The format is cell-based.
The test system of data set [26] is RAW264.7. Briefly: Antiinflammatory activity in LPS-stimulated mouse RAW264.7 cells assessed as reduction in iNOS expression at 10 uM co-incubated with LPS for 24 hrs by RT-PCR method relative to untreated control. Format: functional.
The test system of data set [27] is RAW264.7. The data set is described as follows: Antiinflammatory activity in LPS-stimulated mouse RAW264.7 cells assessed as reduction in IL-1beta expression at 10 uM co-incubated with LPS for 24 hrs by RT-PCR method relative to untreated control. The format is functional.
Data set [28] deals with RAW264.7. The data set is described as follows: Antiinflammatory activity in LPS-stimulated mouse RAW264.7 cells assessed as reduction in iNOS expression at 30 uM co-incubated with LPS for 24 hrs by RT-PCR method relative to untreated control. Format: functional.
Data set [29] has as its system RAW264.7. Briefly: Antiinflammatory activity in LPS-stimulated mouse RAW264.7 cells assessed as reduction in IL-1beta expression at 20 uM co-incubated with LPS for 24 hrs by RT-PCR method relative to untreated control. The format is functional.
Data set [30] in a line: Cytotoxicity against LPS-stimulated mouse RAW264.7 cells assessed as cell viability at 3 uM after 24 hrs by MTT assay (reference value: 100%). The format is cell-based. The settings on record: LPS-stimulated RAW264.7 cells, read-out: Activity.
The test system of data set [31] is RAW264.7. The data set is described as follows: Antiinflammatory activity in LPS-stimulated mouse RAW264.7 cells assessed as reduction in nitric oxide production at 3 uM after 24 hrs by Griess method based ELISA (reference value: 52.4 +/- 0.9 uM). The format is functional.
Data set [32] is described as follows: Cytotoxicity against LPS-stimulated mouse RAW264.7 cells assessed as cell viability at 1.5 uM after 24 hrs by MTT assay (reference value: 100%). Format: cell-based. The settings on record: LPS-stimulated RAW264.7 cells, read-out: Activity.
Data set [33] concerns RAW264.7. Briefly: Antiinflammatory activity in LPS-stimulated mouse RAW264.7 cells assessed as reduction in nitric oxide production at 1.5 uM after 24 hrs by Griess method based ELISA (reference value: 52.4 +/- 0.9 uM). The format is functional.

As usually defined, the IC50 is the concentration that inhibits the measured activity by half. For `C[C@@H]1C[C@@H](O)[C@]2(C)CC[C@]3(C)[C@H](CC[C@@H]4[C@@]5(C)CC[C@H](O[C@@H]6O[C@H](CO)[C@@H](O)[C@H](O)[C@H]6O[C@@H]6O[C@H](CO)[C@@H](O)[C@H](O)[C@H]6O)C(C)(C)[C@@H]5CC[C@]43C)[C@@H]2[C@]1(C)O`, the viability at 24 h, 120 µM in [1] is 73.9%. Besides, the Activity in [2] worked out at 40.4 µM; in data set [4], 30.8 µM; in data set [6] it was 54.5 µM. For the same compound, in data set [3], the viability at 24 h, 80 µM came to 91.7%. The viability at 24 h, 40 µM in data set [5] was determined as 90.3%. For the same compound, the IC50 in [7] stood at 127 µg/mL (≈ 161 µM).
In the case of `C[C@@H]1[C@H]2[C@H]3C[C@H](O)[C@@H]4[C@@]5(C)CC[C@H](O[C@H]6O[C@H](CO[C@H]7O[C@H](CO[C@H]8O[C@H](CO[C@H]9O[C@H](CO)[C@@H](O)[C@H](O)[C@H]9O)[C@@H](O)[C@H](O)[C@H]8O)[C@@H](O)[C@H](O)[C@H]7O)[C@@H](O)[C@H](O)[C@H]6O)C(C)(C)[C@@H]5CC[C@@]4(C)[C@]3(C)CC[C@@]2(C)CC[C@H]1C`, the “fold change (FC)” value came to 0.6 in data set [8]; 0.6 in data set [9]; 0.7 in [10]; 0.7 in [12]; 0.5 in data set [14]; 0.6 in [16]. Further, the “fold change (FC)” value was found to be 0.5 in [18]; 0.5 in data set [19]; 0.7 in data set [20]; 0.6 in data set [21]; 0.6 in data set [22]; 0.7 in data set [26]. For the same compound, the figures for the “fold change (FC)” value in data set [27], in data set [28] and in [29] were 0.7, 0.4 and 0.7, respectively. Also, the inhibition entry in data set [11] was “Active”. For the same compound, the inhibition entry in [13] was “Dose-dependent effect”. The viability at 24 h, 20 µM in data set [15] amounted to 126%. Moreover, the viability at 24 h, 10 µM in [17] came to 111%. Further, the viability at 24 h, 40 µM in data set [5] is 98.7%. For the same compound, the Activity in [23] is 46.4 µM; in [24], 39.8 µM; in [25], “Non-toxic”; in data set [6], 7.1 µM. Further, in data set [7], the IC50 came out at 25.9 µg/mL (≈ 23.7 µM).
With `O=c1c(O)c(-c2ccc(O)c(O)c2)oc2cc(O)cc(O)c12` [QUERCETIN], in data set [30], the viability at 24 h, 3 µM amounted to 104%. For the same compound, the values for the Activity in data set [31] and in data set [33] were 13.5 µM and 20.8 µM, respectively. For the same compound, in data set [32], the viability at 24 h, 1.5 µM was 104%. For the same compound, the 50% inhibitory concentration (IC50) in data set [7] amounted to 2.9 µg/mL (≈ 9.6 µM).

(Values after ChEMBL document CHEMBL3352216, “Triterpene glycosides from red ginseng marc and their anti-inflammatory activities” (Bioorg Med Chem Lett, 2014).)
